# In patent US8106019B2, “CHEC-7 a novel sPLA2 inhibitor” (Philadelphia Health & Education Corporation, priority 2002, dated 2012):
# Assays:
# plasma sPLA2 = conditions: LPS 4 mg/kg s.c.; peptide 0.4 mg/kg s.c. 60 min later
# human plasma PLA2 = conditions: 25 nM peptide
# PLA2 = conditions: cited from earlier work
substance,measurement,setting,value
CHEASQC [CHEC-7],LPS-induced increases in sPLA2 activity in plasma,plasma sPLA2,effective in attenuating
same,effect on LPS-induced plasma sPLA2 compared with CHEC-9,plasma sPLA2,greater and more sustained effect
same,dependence of inhibition on substrate concentration,human plasma PLA2,less effective at the lowest substrate concentrations
same,ex vivo inhibition of human plasma PLA2,"human plasma PLA2; 25% pooled ALS plasma, PED6 substrate",inhibition
PMSF,PLA2 activity,PLA2,inhibits PLA2 activity
CAHAQAESC,survival of neural cells,neural cells,promotes survival of neural cells
